Experimental data: PubChem BioAssay AID2060326 (Molecular Pharmacology Branch, DTP, NCI, 2025)

Test system: MDA-MB-468 multi-cell spheroids, viability
Test: Anticancer human tumor MDA-MB-468 cell line growth inhibition [IpAb];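 further: spheroids exposed to agents for seven days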;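 on viability, T/C: 100% = DMSO vehicle control viability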
Conditions: for IC50: curve of first compound; for viability, T/C: stronger effect = lower value
Outline: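 Combinations with ipatasertib or abemaciclib were tested on tumour spheroids holding HUVEC (25%) and MSC (15%) alongside 60% malignant cells. Top concentration was at or near clinical Cmax (10 microM if undefined), descending in half-log steps.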

[1] = second compound 0.1 µM, first compound 0.0316 µM
[2] = second compound 0.1 µM, first compound 0.1 µM
[3] = second compound 0.316 µM, first compound 0.0316 µM
[4] = second compound 0.316 µM, first compound 0.1 µM
[5] = second compound 1 µM, first compound 0.0316 µM
[6] = second compound 1 µM, first compound 0.1 µM
[7] = second compound 0.1 µM, first compound 0.00949 µM
[8] = second compound 0.1 µM, first compound 0.03 µM
[9] = second compound 0.1 µM, first compound 0.0949 µM
[10] = second compound 0.1 µM, first compound 0.3 µM
[11] = second compound 0.316 µM, first compound 0.00949 µM
[12] = second compound 0.316 µM, first compound 0.03 µM
[13] = second compound 0.316 µM, first compound 0.0949 µM
[14] = second compound 0.316 µM, first compound 0.3 µM
[15] = second compound 1 µM, first compound 0.00949 µM
[16] = second compound 1 µM, first compound 0.03 µM
[17] = second compound 1 µM, first compound 0.0949 µM
[18] = second compound 1 µM, first compound 0.3 µM
[19] = second compound 3.16 µM, first compound 0.00949 µM
[20] = second compound 3.16 µM, first compound 0.03 µM
[21] = second compound 3.16 µM, first compound 0.0949 µM
[22] = second compound 3.16 µM, first compound 0.3 µM
[23] = second compound 10 µM, first compound 0.00949 µM
[24] = second compound 10 µM, first compound 0.03 µM
[25] = second compound 10 µM, first compound 0.0949 µM
[26] = second compound 10 µM, first compound 0.3 µM

Work on `Cn1ncnc1[C@H]1c2n[nH]c(=O)c3cc(F)cc(c23)N[C@@H]1c1ccc(F)cc1` + CCN1CCN(Cc2ccc(Nc3ncc(F)c(-c4cc(F)c5nc(C)n(C(C)C)c5c4)n3)nc2)CC1 yielded an IC50 (second compound 0.01 µM) greater than 100 nM, an IC50 (second compound 0.0316 µM) greater than 100 nM and an IC50 (second compound 0.1 µM) greater than 100 nM. For the same molecule, the IC50 (second compound 0.316 µM) was greater than 100 nM, the IC50 (second compound 1 µM) was greater than 100 nM and the viability, T/C (second compound 0.01 µM, first compound 0.000316 µM) was 89%. The viability, T/C (second compound 0.01 µM, first compound 0.001 µM) was 91.1%, the viability, T/C (second compound 0.01 µM, first compound 0.00316 µM) was 89.2% and the viability, T/C (second compound 0.01 µM, first compound 0.01 µM) was 82.8%. The viability, T/C (second compound 0.01 µM, first compound 0.0316 µM) was 89.6%, the viability, T/C (second compound 0.01 µM, first compound 0.1 µM) was 63.1% and the viability, T/C (second compound 0.0316 µM, first compound 0.000316 µM) was 89.1%. The viability, T/C (second compound 0.0316 µM, first compound 0.001 µM) was 82.4%, the viability, T/C (second compound 0.0316 µM, first compound 0.00316 µM) was 92% and the viability, T/C (second compound 0.0316 µM, first compound 0.01 µM) was 73.2%. For the same molecule, the viability, T/C (second compound 0.0316 µM, first compound 0.0316 µM) was 91.6%, the viability, T/C (second compound 0.0316 µM, first compound 0.1 µM) was 54% and the viability, T/C (second compound 0.1 µM, first compound 0.000316 µM) was 92%. For the same molecule, the viability, T/C (second compound 0.1 µM, first compound 0.001 µM) was 103%, the viability, T/C (second compound 0.1 µM, first compound 0.00316 µM) was 94.9% and the viability, T/C (second compound 0.1 µM, first compound 0.01 µM) was 97.5%. The viability, T/C [1] was 78.5%, the viability, T/C [2] was 63.7% and the viability, T/C (second compound 0.316 µM, first compound 0.000316 µM) was 92.8%. For the same molecule, the viability, T/C (second compound 0.316 µM, first compound 0.001 µM) was 85%, the viability, T/C (second compound 0.316 µM, first compound 0.00316 µM) was 86.6% and the viability, T/C (second compound 0.316 µM, first compound 0.01 µM) was 90.2%. The viability, T/C [3] was 78.2%, the viability, T/C [4] was 70.1% and the viability, T/C (second compound 1 µM, first compound 0.000316 µM) was 86.7%. It also gave a viability, T/C (second compound 1 µM, first compound 0.001 µM) of 83.5%, a viability, T/C (second compound 1 µM, first compound 0.00316 µM) of 82.3% and a viability, T/C (second compound 1 µM, first compound 0.01 µM) of 68.2%. It also gave a viability, T/C [5] of 66.6% and a viability, T/C [6] of 68.9%.
In the case of `CC1(C)CCC(CN2CCN(c3ccc(C(=O)NS(=O)(=O)c4ccc(NCC5CCOCC5)c([N+](=O)[O-])c4)c(Oc4cnc5[nH]ccc5c4)c3)CC2)=C(c2ccc(Cl)cc2)C1` + CC(C)NCC(C(=O)N1CCN(c2ncnc3c2C(C)CC3O)CC1)c1ccc(Cl)cc1, the IC50 (second compound 0.1 µM) is reported as 4760 nM, the IC50 (second compound 0.316 µM) is reported as 3030 nM and the IC50 (second compound 1 µM) is reported as 1380 nM. For the same molecule, the IC50 (second compound 3.16 µM) was less than 31.6 nM, the IC50 (second compound 10 µM) was less than 31.6 nM and the viability, T/C [1] was 109%. The viability, T/C [2] was 89.5%, the viability, T/C (second compound 0.1 µM, first compound 0.316 µM) was 98.3% and the viability, T/C (second compound 0.1 µM, first compound 1 µM) was 94.6%. It also gave a viability, T/C (second compound 0.1 µM, first compound 3.16 µM) of 71.3%, a viability, T/C (second compound 0.1 µM, first compound 10 µM) of 11.3% and a viability, T/C [3] of 69.8%. For the same molecule, the viability, T/C [4] was 72.2%, the viability, T/C (second compound 0.316 µM, first compound 0.316 µM) was 82.4% and the viability, T/C (second compound 0.316 µM, first compound 1 µM) was 69.5%. It also gave a viability, T/C (second compound 0.316 µM, first compound 3.16 µM) of 49.3%, a viability, T/C (second compound 0.316 µM, first compound 10 µM) of 7.93% and a viability, T/C [5] of 56.9%. For the same molecule, the viability, T/C [6] was 63.8%, the viability, T/C (second compound 1 µM, first compound 0.316 µM) was 55% and the viability, T/C (second compound 1 µM, first compound 1 µM) was 56.6%. For the same molecule, the viability, T/C (second compound 1 µM, first compound 3.16 µM) was 34.1%, the viability, T/C (second compound 1 µM, first compound 10 µM) was 5.02% and the viability, T/C (second compound 3.16 µM, first compound 0.0316 µM) was 34.4%. It also gave a viability, T/C (second compound 3.16 µM, first compound 0.1 µM) of 37.7%, a viability, T/C (second compound 3.16 µM, first compound 0.316 µM) of 38.5% and a viability, T/C (second compound 3.16 µM, first compound 1 µM) of 36.4%. It also gave a viability, T/C (second compound 3.16 µM, first compound 3.16 µM) of 26.1%, a viability, T/C (second compound 3.16 µM, first compound 10 µM) of 2.19% and a viability, T/C (second compound 10 µM, first compound 0.0316 µM) of 17.4%. It also gave a viability, T/C (second compound 10 µM, first compound 0.1 µM) of 18.9%, a viability, T/C (second compound 10 µM, first compound 0.316 µM) of 17.9% and a viability, T/C (second compound 10 µM, first compound 1 µM) of 19.5%. The viability, T/C (second compound 10 µM, first compound 3.16 µM) was 9.97% and the viability, T/C (second compound 10 µM, first compound 10 µM) was 0.99%.
`CC(=O)c1c(C)c2cnc(Nc3ccc(N4CCNCC4)cn3)nc2n(C2CCCC2)c1=O` + CC(C)NCC(C(=O)N1CCN(c2ncnc3c2C(C)CC3O)CC1)c1ccc(Cl)cc1 was tested, and the IC50 (second compound 0.1 µM) was greater than 300 nM, the IC50 (second compound 0.316 µM) was greater than 300 nM and the IC50 (second compound 1 µM) was 4.44 nM. For the same molecule, the IC50 (second compound 3.16 µM) was less than 0.949 nM, the IC50 (second compound 10 µM) was less than 0.949 nM and the viability, T/C (second compound 0.1 µM, first compound 0.000949 µM) was 87.4%. For the same molecule, the viability, T/C (second compound 0.1 µM, first compound 0.003 µM) was 80.3%, the viability, T/C [7] was 73.1% and the viability, T/C [8] was 81%. It also gave a viability, T/C [9] of 71.4%, a viability, T/C [10] of 77.8% and a viability, T/C (second compound 0.316 µM, first compound 0.000949 µM) of 66.1%. The viability, T/C (second compound 0.316 µM, first compound 0.003 µM) was 61%, the viability, T/C [11] was 57.4% and the viability, T/C [12] was 54.8%. The viability, T/C [13] was 59.5%, the viability, T/C [14] was 59.5% and the viability, T/C (second compound 1 µM, first compound 0.000949 µM) was 57.9%. For the same molecule, the viability, T/C (second compound 1 µM, first compound 0.003 µM) was 51.8%, the viability, T/C [15] was 46.4% and the viability, T/C [16] was 48.1%. It also gave a viability, T/C [17] of 49.6%, a viability, T/C [18] of 48.3% and a viability, T/C (second compound 3.16 µM, first compound 0.000949 µM) of 35.9%. The viability, T/C (second compound 3.16 µM, first compound 0.003 µM) was 36.4%, the viability, T/C [19] was 31.9% and the viability, T/C [20] was 32.7%. The viability, T/C [21] was 29.5%, the viability, T/C [22] was 29.8% and the viability, T/C (second compound 10 µM, first compound 0.000949 µM) was 18.6%. The viability, T/C (second compound 10 µM, first compound 0.003 µM) was 19.3%, the viability, T/C [23] was 19.9% and the viability, T/C [24] was 17.5%. It also gave a viability, T/C [25] of 17.3% and a viability, T/C [26] of 17.6%.
Molecule `Cn1cnc2c(F)c(Nc3ccc(Br)cc3Cl)c(C(=O)NOCCO)cc21` + CC(C)NCC(C(=O)N1CCN(c2ncnc3c2C(C)CC3O)CC1)c1ccc(Cl)cc1 has an IC50 (second compound 0.1 µM) of 435 nM, an IC50 (second compound 0.316 µM) of 54.8 nM and an IC50 (second compound 1 µM) of less than 9.49 nM. It also gave an IC50 (second compound 3.16 µM) of less than 9.49 nM, an IC50 (second compound 10 µM) of less than 9.49 nM and a viability, T/C [7] of 72.6%. The viability, T/C [8] was 72.2%, the viability, T/C [9] was 63.4% and the viability, T/C [10] was 53.6%. It also gave a viability, T/C (second compound 0.1 µM, first compound 0.949 µM) of 41.2%, a viability, T/C (second compound 0.1 µM, first compound 3 µM) of 21.2% and a viability, T/C [11] of 66.3%. The viability, T/C [12] was 49%, the viability, T/C [13] was 46.7% and the viability, T/C [14] was 35%. It also gave a viability, T/C (second compound 0.316 µM, first compound 0.949 µM) of 28.8%, a viability, T/C (second compound 0.316 µM, first compound 3 µM) of 8.58% and a viability, T/C [15] of 50.4%. For the same molecule, the viability, T/C [16] was 38.7%, the viability, T/C [17] was 41.4% and the viability, T/C [18] was 24.2%. It also gave a viability, T/C (second compound 1 µM, first compound 0.949 µM) of 16.6%, a viability, T/C (second compound 1 µM, first compound 3 µM) of 3.5% and a viability, T/C [19] of 34.8%. For the same molecule, the viability, T/C [20] was 28.4%, the viability, T/C [21] was 22.2% and the viability, T/C [22] was 18%. It also gave a viability, T/C (second compound 3.16 µM, first compound 0.949 µM) of 5.62%, a viability, T/C (second compound 3.16 µM, first compound 3 µM) of 0.63% and a viability, T/C [23] of 13.7%. It also gave a viability, T/C [24] of 13.5%, a viability, T/C [25] of 7.27% and a viability, T/C [26] of 3.11%. It also gave a viability, T/C (second compound 10 µM, first compound 0.949 µM) of 0.84% and a viability, T/C (second compound 10 µM, first compound 3 µM) of 0.43%.
